Test [1] deals with C57BL/6 line wild type (WT) male mice. The experiment in a line: Test Example 3: Wake-promoting effect by oral administration to wild type mice (EEG/EMG). The test is classed as in vivo. As for the experimental part: The experimental animals used were C57BL/6 line wild type (WT) male mice. Electroencephalogram and electromyogram measuring electrodes were surgically embedded into 13-week-old mice under isoflurane anesthesia. The solvent (0 mg/kg) or a solution of the compound of Example 1 dissolved in the solvent (1, 3 or 10 mg/kg) was orally administered 30 to 15 minutes before lighting was turned off. The solvent used was a 0.1 moL/L hydrochloric acid solution containing 5% (v/v) DMSO and 5% (v/v) Kolliphor™ EL. The electroencephalogram and electromyogram were recorded for about 24 hours, from 1 hour before lighting was turned off. The mice were repeatedly used, with a washout period of 2 days or longer. The electroencephalogram and electromyogram data obtained for each mouse were used to assess the sleep stage every epoch (10 seconds), using sleep analysis software (SleepSign: Kissei Comtec Co., Ltd.). […] Using 16 mice in each administered group, the sleep onset latency in a solvent-administered group (control group) and an Example 1 compound-administered group were compared by a Dunnet-type multiple comparison test following survival time analysis in consideration of the number of experiments and use of the same individuals, with a significance level of 5% at both ends for each.

Another test concerns the target hOX2R (Homo sapiens (Human), UniProt O43614). The experiment in a line: Test Example 1-2: Evaluation of activating activity for OX2R (calcium flux, HEK293 with forced expression). The test is classed as cell-based. The note with it: HEK293 cells expressing hOX2R; intracellular calcium; 30 nM OX-A as 100%; up to 1×10^−5 M. As for the experimental part: (§1) Human Embryonic Kidney cells 293 (HEK293) cells with forced expression of hOX1R or hOX2R were seeded in a 384-well microplate (Greiner) at 10,000 per well and cultured for 1 day in high-glucose-DMEM (FujiFilm Corp.—Wako Pure Chemical Industries, Ltd.) containing added 10% FBS (Thermo Scientific) and 1% Penicillin-Streptomycin (FujiFilm Corp.—Wako Pure Chemical Industries, Ltd.). After removing the medium, 30 μL of assay buffer (20 mM HEPES (Sigma-Aldrich Japan, KK.), Hank's balanced salt solution (Gibco), 0.1% BSA (Sigma-Aldrich Japan, KK.), 0.1% Pluronic F-127 (Invitrogen)) containing Calcium 4 dye (Molecular Device Corporation) and 2.5 mM probenecid (Sigma-Aldrich Japan, KK.) were added, and the mixture was incubated for 60 minutes. A 30 μL portion of assay buffer containing the test compound was added and reaction was initiated. Change in intracellular calcium ion concentration by the reaction was measured based on the fluorescence intensity ratio in terms of the fluorescence value with […], using FDSS7000 (Hamamatsu Photonics, K.K.). The test compound was dissolved in DMSO to 10 mM, and diluted with assay buffer to a final concentration of from 3×10^−11 M to 1×10^−5 M (DMSO final concentration of 0.1%). The EC50 value was determined from the fluorescence value with addition of the test compound at different concentrations, with the fluorescence value of the well with compound-free buffer added as 0%, and the fluorescence value of the well with 30 nM OX-A (Peptide Research Lab) as 100%.
In general terms: Calcium flux is commonly read through the fluorescence of an indicator in the cells.

A further test concerns the target hOX1R (Homo sapiens (Human), UniProt O43613). As to the kind of experiment: Test Example 1-2: Evaluation of activating activity for OX1R (calcium flux, HEK293 with forced expression). The test is classed as cell-based. The note with it: HEK293 cells expressing hOX1R; intracellular calcium; 30 nM OX-A as 100%; up to 1×10^−5 M. As for the experimental part:
as §1

In test [2] the test system is orexin/ataxin-3 Tg/+ mice. The experiment in a line: Test Example 4: Wake-promoting effect and cataplexy-free state elongation in orexin-deficient mice (EEG/EMG). The test is classed as in vivo. To be noted: oral; for DREM latency: cut-off 4 hours. The method, then: The experimental animals used were orexin/ataxin-3 Tg/+ mice (hereunder referred to as “Tg mice”, Ham et al., Neuron, 30,345-54,2001) with a C57BL/6 genetic background. Electroencephalogram and electromyogram measuring electrodes were surgically embedded into 12-week-old mice (±2 weeks) under isoflurane anesthesia. The solvent (0 mg/kg) or a solution of a sample (compound of Example 1 dissolved in the solvent: 0.3, 1 or 3 mg/kg) was orally administered 30 to 15 minutes before lighting was turned off. The solvent used was a 0.1 moL/L hydrochloric acid solution containing 5% (v/v) DMSO and 5% (v/v) Kolliphor™ EL. The electroencephalogram and electromyogram were recorded for about 24 hours, from 1 hour before lighting was turned off. The mice were repeatedly used, with a washout period of 2 days or longer. The electroencephalogram and electromyogram data obtained for each mouse were used to assess the sleep stage every epoch (10 seconds), using sleep analysis software (SleepSign: Kissei Comtec Co., Ltd.), up to a maximum of 4 hours (cut-off value). For the purpose of this experiment, cataplexy-like symptoms were defined as REM sleep appearing immediately after wakefulness (direct transition from wake to REM sleep (DREM)) for a contiguous period of 4 epochs or longer. DREM in mice is an analog of cataplexy (Exp Neurol. 2009; 217:46-54). The time until initial sleep appeared after lighting out for each mouse (sleep for contiguous 8 epochs or longer, excluding DREM)(sleep onset latency) and the time until initial DREM appeared (DREM latency) were measured. The numbers of mice were 14 in the vehicle group and Example 1 compound-administered groups. The sleep onset latency and DREM latency in a vehicle control group and a compound-administered group were compared by a Dunnet-type multiple comparison test following survival time analysis in consideration of the number of experiments and use of the same individuals, with a significance level of 5% at both ends for each.

The subject of another test is Male C57BL/6NCrl mice. As to the kind of experiment: Test Example 2: Increase in spontaneous movement. The test is classed as in vivo. To be noted: orally administered 10 mg/kg, measured 2 hours after administration, control group as 100%. As for the experimental part:
Similar to increase in body temperature or increase in cardiovascular parameters such as blood pressure, increased movement in mice is one of indicator for wakefulness. In this test example, the alertness effect was evaluated by measuring spontaneous movement of the mice. Male C57BL/6NCrl mice (18-19 weeks old, Charles River Laboratories, Japan Inc., 4 mice in each group) were used for the experiment. Spontaneous movement was measured by using a movement measuring device (VersaMax Oven Field, AccuScan Instruments, Inc.), irradiating infrared rays from the side sections of the measuring cage, and quantifying the number of times that the mice passed through the irradiation. After placing the mice in the measuring cage and conditioning for 3 hours, the compound was orally administered (10 mg/kg). Spontaneous movement was measured 2 hours after administration. The test compound-administered group was administered a solution of the test compound dissolved in 0.1 moL/L hydrochloric acid containing 5% (v/v) DMSO and 5% (v/v) Kolliphor™ EL. For the control group, solvent alone without the test compound was administered to the mice.
Spontaneous movement was represented as a percentage for the test compound-administered group, with spontaneous movement in the control group as 100%.

The target in the next test is human OX2R (hOX2R) (Homo sapiens (Human), UniProt O43614). The experiment in a line: Test Example 1-1: Evaluation of activity for OX2R (calcium flux, HEK293 with forced expression). The test is classed as cell-based. To be noted: HEK293 cells expressing hOX2R; intracellular calcium; 10 nM OX-A as 100%; up to 1×10^−7 M. As for the experimental part: HEK293 (human embryonic kidney 293) cells with forced expression of human OX1R (hOX1R) or human OX2R (hOX2R) were seeded in a 384-well microplate (Greiner) at 10,000 per well and cultured for 1 day in high-glucose-DMEM (FujiFilm Corp.—Wako Pure Chemical Industries, Ltd.) containing added 10% FBS (Tenno Scientific) and 1% Penicillin-Streptomycin (FujiFilm Corp.—Wako Pure Chemical Industries, Ltd.). After removing the medium, 40 μL of assay buffer (20 mM HEPES (Sigma-Aldrich Japan, KK.), Hanks' balanced salt solution (Gibco), 0.1% BSA (Sigma-Aldrich Japan, KK.), 0.1% Pluronic F-127 (Invitrogen)) containing Calcium 4 dye (Molecular Device Corporation) and 2.5 mM probenecid (Sigma-Aldrich Japan, KK.) were added, and the plate was incubated for 60 minutes. After further adding 20 μL of assay buffer, 20 μL of assay buffer containing the test compound was added and reaction was initiated. Change in intracellular calcium ion concentration during the reaction was measured based on the fluorescence intensity ratio in terms of the fluorescence value with wavelength excitation at 480 nm and detection at 540 nm, using FDSS7000 (Hamamatsu Photonics, K.K.). The test compound was dissolved in DMSO to 10 mM, and diluted with assay buffer to a final concentration of from 3×10^−11 M to 1×10^−7 M (DMSO final concentration of 0.1%). […]
human OX2R (hOX2R), sequence (O43614 whole entry): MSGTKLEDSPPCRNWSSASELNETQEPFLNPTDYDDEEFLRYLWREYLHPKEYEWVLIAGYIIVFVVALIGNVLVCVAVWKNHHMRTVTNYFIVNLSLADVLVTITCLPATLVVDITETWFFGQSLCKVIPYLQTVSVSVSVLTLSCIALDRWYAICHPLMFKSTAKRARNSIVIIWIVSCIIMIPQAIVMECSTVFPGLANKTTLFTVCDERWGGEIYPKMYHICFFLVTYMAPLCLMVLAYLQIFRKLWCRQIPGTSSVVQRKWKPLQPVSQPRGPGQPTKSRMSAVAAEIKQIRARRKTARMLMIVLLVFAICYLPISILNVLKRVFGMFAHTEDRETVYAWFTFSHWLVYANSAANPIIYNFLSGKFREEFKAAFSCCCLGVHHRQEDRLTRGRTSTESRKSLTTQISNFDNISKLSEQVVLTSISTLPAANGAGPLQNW

hOX2R, sequence (O43614 whole entry): as above
hOX1R, sequence (O43613 whole entry): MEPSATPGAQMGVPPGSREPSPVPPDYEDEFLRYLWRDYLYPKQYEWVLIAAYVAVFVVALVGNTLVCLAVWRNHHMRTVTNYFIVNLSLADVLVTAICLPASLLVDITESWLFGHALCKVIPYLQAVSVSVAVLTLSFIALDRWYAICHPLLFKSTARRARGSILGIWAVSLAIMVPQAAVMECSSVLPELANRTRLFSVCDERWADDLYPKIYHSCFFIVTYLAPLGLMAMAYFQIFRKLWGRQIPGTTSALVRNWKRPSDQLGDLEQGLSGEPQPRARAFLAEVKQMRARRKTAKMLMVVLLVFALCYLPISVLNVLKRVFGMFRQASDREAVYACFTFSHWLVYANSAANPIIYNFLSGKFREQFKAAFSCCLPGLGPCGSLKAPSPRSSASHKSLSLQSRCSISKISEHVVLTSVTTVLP

As to `CO[C@@H]1CN(c2ncc(F)cn2)CC[C@@H]1[C@@H]1C[C@H]2CC[C@@H](C1)N2[C@@H](C(N)=O)C1CC1` [Example 1, (R)-2-cyclopropyl-2-((1R,3S,5S)-3-((3S,4R)-1-(5-fluoropyrimidin-2-yl)-3-methoxypiperidin-4-yl)-8-azabicyclo[3.2.1]octan-8-yl)acetamide], the sleep onset latency in test [1] (1 mg/kg) came out at 0.28 h; in test [1] (3 mg/kg), 0.44 h; in test [1] (10 mg/kg) it was 2.07 h; in test [2] (0.3 mg/kg), 0.31 h; in test [2] (1 mg/kg) it was 0.64 h; in test [2] (3 mg/kg), 2.42 h. Further, the half-maximal effective concentration (EC50) at hOX2R came to 2.3 nM; at hOX1R, 4700 nM; on human OX2R (hOX2R) it was 0.99 nM. In addition, the DREM latency in test [2] (0.3 mg/kg) amounted to 1.50 h; in test [2] (1 mg/kg), 2.26 h; in test [2] (3 mg/kg), 4.00 h. The “Spontaneous movement (% of Control)” value in the test on Male C57BL/6NCrl mice is 865 % of Control.
For the compound `CO[C@@H]1CN(c2ncc(F)cn2)CC[C@@H]1[C@@H]1C[C@H]2CC[C@@H](C1)N2[C@@H](C(N)=O)C(C)C` [Example 2, (R)-2-((1R,3S,5S)-3-((3S,4R)-1-(5-fluoropyrimidin-2-yl)-3-methoxypiperidin-4-yl)-8-azabicyclo[3.2.1]octan-8-yl)-3-methylbutaneamide], the “Spontaneous movement (% of Control)” value in the test on Male C57BL/6NCrl mice is given as 253 % of Control.
Turning to `CCO[C@@H]1CN(c2ncc(Cl)cn2)CC[C@@H]1[C@@H]1C[C@H]2CC[C@@H](C1)N2[C@@H](C(N)=O)C1CC1` [Example 3, (R)-2-((1R,3S,5S)-3-((3S,4R)-1-(5-chloropyrimidin-2-yl)-3-ethoxypiperidin-4-yl)-8-azabicyclo[3.2.1]octan-8-yl)-2-cyclopropyl acetamide], the figures for the EC50 at hOX2R and at hOX1R were 4.3 nM and 1400 nM, respectively.
With `C[C@H]1C[C@@H]([C@@H]2C[C@H]3CC[C@@H](C2)N3[C@@H](C(N)=O)C2CC2)CCN1c1ncc(F)cn1` [Example 4, (R)-2-cyclopropyl-2-((1R,3S,5S)-3-((2S, 4S)-1-(5-fluoropyrimidin-2-yl)-2-methylpiperidin-4-yl)-8-azabicyclo[3.2.1]octan-8-yl)acetamide], the EC50 on hOX2R is 4.4 nM; at hOX1R, 3900 nM.

In general, EC50 refers to the midpoint of the concentration-response curve.

The values above are taken from patent US11479552B2, “Substituted piperidine compounds and their use” (Eisai R&D Management Co., Ltd., priority 2020, dated 2022).
